Several values for one entry are separate records, joined by “and”; a condition that tells them apart may be missing. Equal values may be shown once.
Legend:
[1] = target: MLK2/MAP3K10 (Homo sapiens, UniProt Q02779); conditions: 1 μM; Run 1, Run 2
[2] = target: RON/MST1R (Homo sapiens, UniProt Q04912); experiment: biochemical; conditions: read-out: % enzyme activity, 1 μM; Run 1, Run 2
[3] = target: T1, PLK4/SAK (Homo sapiens, UniProt O00444); conditions: 1 μM; Run 1, Run 2
T1 sequence (O00444 1-970): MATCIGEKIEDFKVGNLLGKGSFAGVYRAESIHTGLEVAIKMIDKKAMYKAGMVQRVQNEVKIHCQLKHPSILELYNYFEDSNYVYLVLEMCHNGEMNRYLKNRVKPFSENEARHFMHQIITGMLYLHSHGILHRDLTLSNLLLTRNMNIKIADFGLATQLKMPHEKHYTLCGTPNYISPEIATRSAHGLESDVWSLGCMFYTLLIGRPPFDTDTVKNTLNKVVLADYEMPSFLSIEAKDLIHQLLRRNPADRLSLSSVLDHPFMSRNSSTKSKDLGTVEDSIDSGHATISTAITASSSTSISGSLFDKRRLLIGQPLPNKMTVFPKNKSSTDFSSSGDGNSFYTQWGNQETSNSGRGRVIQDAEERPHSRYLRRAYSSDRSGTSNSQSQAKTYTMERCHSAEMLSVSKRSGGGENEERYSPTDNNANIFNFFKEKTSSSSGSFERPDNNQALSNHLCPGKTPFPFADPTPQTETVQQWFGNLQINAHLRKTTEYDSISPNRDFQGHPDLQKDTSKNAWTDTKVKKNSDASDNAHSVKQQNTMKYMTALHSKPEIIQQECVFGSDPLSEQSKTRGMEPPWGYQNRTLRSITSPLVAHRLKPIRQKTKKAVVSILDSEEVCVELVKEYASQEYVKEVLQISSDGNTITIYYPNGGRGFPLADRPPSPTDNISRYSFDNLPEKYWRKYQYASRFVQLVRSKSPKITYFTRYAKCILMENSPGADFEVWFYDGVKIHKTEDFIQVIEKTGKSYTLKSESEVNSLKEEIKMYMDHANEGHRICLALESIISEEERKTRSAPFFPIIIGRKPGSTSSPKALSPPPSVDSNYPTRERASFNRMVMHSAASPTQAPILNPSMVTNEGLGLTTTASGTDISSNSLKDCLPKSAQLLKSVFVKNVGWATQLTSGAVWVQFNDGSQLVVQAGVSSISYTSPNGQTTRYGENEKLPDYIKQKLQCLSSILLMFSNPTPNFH

[4] = target: HIPK2 (Homo sapiens, UniProt Q9H2X6); experiment: biochemical; conditions: read-out: % enzyme activity, 1 μM; Run 1, Run 2
Sequence of HIPK2 (Q9H2X6 whole entry): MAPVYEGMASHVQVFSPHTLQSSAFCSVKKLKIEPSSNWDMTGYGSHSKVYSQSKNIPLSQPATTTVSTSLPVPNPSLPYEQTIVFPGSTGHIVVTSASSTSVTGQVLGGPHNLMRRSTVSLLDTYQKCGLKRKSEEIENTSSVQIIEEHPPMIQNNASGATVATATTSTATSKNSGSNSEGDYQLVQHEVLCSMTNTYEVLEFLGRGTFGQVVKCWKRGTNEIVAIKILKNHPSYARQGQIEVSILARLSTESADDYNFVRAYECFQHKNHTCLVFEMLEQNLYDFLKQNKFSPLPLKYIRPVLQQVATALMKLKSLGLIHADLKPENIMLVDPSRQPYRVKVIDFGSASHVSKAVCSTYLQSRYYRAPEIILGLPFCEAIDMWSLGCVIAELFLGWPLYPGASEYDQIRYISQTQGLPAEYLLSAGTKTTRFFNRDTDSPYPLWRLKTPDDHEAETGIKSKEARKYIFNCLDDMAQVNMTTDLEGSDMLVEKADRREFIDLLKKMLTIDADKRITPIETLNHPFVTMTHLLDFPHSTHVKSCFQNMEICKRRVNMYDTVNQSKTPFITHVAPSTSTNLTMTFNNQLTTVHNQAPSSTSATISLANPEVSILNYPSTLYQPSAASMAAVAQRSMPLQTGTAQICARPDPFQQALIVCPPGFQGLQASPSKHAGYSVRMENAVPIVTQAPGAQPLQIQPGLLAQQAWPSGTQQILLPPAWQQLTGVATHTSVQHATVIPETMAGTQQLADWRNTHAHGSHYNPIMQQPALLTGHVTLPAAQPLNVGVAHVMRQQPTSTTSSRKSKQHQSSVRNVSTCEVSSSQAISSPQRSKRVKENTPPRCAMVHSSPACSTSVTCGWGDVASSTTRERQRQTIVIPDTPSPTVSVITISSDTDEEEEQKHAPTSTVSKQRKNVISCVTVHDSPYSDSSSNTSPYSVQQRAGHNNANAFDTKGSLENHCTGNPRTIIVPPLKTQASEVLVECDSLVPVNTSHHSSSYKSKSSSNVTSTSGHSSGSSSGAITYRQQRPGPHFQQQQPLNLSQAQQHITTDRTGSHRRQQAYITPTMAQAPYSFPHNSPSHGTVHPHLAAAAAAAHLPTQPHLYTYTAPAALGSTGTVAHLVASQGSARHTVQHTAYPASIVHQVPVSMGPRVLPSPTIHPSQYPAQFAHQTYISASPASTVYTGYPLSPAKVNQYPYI

[5] = target: IRAK1 (Homo sapiens, UniProt P51617); experiment: biochemical; conditions: read-out: % enzyme activity, 1 μM; Run 1, Run 2
[6] = system: ALK4/ACVR1B
[7] = target: T2, MKK4 (Homo sapiens, UniProt P45985); conditions: 1 μM; Run 1, Run 2
T2 sequence (P45985 1-399): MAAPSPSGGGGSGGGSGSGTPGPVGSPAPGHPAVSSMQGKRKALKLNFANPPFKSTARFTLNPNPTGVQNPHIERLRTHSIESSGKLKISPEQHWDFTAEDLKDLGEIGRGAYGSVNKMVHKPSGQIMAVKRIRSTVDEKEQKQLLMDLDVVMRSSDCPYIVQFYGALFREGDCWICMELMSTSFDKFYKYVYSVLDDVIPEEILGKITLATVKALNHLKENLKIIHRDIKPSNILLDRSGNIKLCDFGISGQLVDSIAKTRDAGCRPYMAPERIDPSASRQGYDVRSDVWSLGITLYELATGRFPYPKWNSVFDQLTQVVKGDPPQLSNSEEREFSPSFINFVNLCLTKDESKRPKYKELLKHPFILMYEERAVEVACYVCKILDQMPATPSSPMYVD

[8] = target: STK32B/YANK2 (Homo sapiens, UniProt Q9NY57); conditions: 1 μM; Run 1, Run 2
[9] = target: CDC7/DBF4 (Homo sapiens, UniProt O00311); conditions: 1 μM; Run 1, Run 2
Sequence of CDC7/DBF4 (O00311 whole entry): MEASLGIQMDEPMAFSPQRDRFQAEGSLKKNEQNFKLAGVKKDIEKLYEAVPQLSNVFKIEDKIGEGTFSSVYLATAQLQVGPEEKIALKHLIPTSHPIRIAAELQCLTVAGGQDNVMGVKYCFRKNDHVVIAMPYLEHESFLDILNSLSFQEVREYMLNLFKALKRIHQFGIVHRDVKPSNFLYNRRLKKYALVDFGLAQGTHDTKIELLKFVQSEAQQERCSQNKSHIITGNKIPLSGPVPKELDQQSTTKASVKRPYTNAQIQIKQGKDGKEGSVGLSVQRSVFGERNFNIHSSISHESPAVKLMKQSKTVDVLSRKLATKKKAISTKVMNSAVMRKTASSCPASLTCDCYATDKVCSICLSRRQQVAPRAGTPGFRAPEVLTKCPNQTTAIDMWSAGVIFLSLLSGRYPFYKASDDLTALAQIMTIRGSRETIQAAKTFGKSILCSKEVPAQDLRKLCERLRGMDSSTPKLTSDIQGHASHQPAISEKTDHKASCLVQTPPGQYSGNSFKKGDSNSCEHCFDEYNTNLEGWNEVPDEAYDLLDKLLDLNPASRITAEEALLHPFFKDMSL
Sequence of CDC7/DBF4 (Q9UBU7 whole entry partner): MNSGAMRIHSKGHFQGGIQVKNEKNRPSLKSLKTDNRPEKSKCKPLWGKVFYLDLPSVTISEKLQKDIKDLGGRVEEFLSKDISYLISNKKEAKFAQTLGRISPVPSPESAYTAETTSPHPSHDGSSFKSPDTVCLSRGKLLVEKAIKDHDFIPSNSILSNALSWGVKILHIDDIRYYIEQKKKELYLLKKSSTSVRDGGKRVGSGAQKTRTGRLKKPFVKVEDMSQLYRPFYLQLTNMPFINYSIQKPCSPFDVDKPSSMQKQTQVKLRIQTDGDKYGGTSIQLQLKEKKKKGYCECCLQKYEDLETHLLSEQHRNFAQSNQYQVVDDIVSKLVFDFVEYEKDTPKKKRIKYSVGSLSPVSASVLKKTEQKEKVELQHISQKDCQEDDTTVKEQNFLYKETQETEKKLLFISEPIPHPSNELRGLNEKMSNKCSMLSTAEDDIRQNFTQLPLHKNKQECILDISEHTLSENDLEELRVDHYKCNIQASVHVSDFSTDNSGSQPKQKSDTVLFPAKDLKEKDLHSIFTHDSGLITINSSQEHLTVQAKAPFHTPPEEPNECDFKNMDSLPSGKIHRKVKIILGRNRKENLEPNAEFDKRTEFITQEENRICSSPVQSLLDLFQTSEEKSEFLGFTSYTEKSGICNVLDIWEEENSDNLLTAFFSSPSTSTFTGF

[10] = target: T3, DYRK2 (Homo sapiens, UniProt Q92630); conditions: 1 μM; Run 1, Run 2
T3 sequence (Q92630 1-601): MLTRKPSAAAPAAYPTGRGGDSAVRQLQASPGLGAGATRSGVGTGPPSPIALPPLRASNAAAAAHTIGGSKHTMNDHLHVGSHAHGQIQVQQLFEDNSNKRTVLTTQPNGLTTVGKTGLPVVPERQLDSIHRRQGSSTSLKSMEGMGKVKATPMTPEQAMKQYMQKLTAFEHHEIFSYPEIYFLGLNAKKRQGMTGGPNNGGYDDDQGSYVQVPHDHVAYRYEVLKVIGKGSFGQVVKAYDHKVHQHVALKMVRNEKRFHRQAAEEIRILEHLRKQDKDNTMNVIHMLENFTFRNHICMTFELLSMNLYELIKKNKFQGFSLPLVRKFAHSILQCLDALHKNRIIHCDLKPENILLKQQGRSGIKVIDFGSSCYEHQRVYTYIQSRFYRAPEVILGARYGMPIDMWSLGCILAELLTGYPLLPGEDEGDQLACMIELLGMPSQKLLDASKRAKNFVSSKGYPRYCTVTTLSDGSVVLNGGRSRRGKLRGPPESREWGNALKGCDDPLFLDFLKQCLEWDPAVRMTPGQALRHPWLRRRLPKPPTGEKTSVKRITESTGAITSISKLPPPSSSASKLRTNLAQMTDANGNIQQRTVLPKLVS

[11] = target: EPHA7 (Homo sapiens, UniProt Q15375); conditions: 1 μM; Run 1, Run 2
Sequence of EPHA7 (Q15375 28-998): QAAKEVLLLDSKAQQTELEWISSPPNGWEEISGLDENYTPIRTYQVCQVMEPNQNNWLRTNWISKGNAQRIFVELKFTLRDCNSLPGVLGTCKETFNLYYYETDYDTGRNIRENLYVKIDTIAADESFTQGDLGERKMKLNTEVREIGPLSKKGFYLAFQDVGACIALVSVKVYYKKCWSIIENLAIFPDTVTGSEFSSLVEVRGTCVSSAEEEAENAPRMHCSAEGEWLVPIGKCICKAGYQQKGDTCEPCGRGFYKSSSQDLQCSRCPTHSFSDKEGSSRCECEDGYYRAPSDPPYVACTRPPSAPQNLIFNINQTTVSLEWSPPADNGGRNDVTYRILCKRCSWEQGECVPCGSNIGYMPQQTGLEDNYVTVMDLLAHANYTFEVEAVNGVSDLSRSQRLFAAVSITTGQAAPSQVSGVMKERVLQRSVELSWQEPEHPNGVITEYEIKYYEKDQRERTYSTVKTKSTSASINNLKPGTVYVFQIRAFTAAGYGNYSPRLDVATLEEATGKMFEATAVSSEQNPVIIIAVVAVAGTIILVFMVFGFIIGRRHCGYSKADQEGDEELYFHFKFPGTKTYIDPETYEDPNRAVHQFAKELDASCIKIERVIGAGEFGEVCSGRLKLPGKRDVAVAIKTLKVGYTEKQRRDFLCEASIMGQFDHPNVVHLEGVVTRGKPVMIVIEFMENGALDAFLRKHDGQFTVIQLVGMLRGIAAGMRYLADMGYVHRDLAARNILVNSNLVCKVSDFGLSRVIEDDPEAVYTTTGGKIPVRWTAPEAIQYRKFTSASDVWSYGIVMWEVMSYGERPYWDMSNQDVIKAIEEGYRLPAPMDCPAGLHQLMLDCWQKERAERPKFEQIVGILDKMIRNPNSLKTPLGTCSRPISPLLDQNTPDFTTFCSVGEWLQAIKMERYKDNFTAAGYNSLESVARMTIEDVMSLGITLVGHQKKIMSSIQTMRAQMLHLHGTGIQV

[12] = target: PIM2 (Homo sapiens, UniProt Q9P1W9); experiment: biochemical; conditions: read-out: % enzyme activity, 1 μM; Run 1, Run 2
Sequence of PIM2 (Q9P1W9 whole entry): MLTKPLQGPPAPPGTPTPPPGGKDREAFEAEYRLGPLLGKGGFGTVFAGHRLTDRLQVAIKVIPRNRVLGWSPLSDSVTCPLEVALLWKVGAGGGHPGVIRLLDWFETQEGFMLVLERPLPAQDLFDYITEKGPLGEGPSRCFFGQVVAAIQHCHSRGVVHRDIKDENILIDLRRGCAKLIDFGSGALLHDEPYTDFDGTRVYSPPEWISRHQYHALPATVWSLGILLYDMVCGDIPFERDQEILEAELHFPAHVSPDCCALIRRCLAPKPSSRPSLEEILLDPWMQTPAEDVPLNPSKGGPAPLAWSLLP

Sequence of MLK2/MAP3K10 (Q02779 whole entry): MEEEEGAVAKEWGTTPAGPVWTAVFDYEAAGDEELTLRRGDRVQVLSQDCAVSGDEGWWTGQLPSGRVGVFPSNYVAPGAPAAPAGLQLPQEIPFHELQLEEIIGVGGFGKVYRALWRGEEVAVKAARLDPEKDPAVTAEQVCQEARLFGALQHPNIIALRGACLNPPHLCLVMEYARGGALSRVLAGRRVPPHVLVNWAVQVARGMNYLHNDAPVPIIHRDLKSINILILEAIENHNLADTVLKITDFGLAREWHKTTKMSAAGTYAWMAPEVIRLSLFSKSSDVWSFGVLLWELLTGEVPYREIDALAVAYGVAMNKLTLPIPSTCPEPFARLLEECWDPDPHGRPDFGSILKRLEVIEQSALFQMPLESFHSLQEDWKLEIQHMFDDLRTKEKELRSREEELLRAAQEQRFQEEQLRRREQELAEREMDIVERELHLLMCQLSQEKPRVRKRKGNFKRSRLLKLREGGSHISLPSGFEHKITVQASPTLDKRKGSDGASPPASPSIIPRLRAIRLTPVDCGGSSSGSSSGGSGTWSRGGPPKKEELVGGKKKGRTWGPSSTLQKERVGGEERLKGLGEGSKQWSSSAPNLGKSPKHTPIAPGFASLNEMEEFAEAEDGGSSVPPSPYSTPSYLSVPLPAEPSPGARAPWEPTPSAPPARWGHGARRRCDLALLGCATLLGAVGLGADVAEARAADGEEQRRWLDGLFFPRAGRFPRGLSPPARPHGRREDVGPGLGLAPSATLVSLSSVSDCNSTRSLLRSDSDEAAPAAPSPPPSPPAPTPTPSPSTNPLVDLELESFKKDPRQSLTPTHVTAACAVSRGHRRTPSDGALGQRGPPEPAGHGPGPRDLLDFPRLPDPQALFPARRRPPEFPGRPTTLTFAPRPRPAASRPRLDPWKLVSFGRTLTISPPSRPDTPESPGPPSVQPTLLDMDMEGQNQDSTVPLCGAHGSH

SMILES	% enzyme activity [1]	remaining activity at 1 µM [2]	% enzyme activity [3]	remaining activity at 1 µM [4]	remaining activity at 1 µM [5]	% enzyme activity at 1 μM [6]	% enzyme activity [7]	% enzyme activity [8]	% enzyme activity [9]	% enzyme activity [10]	% enzyme activity [11]	remaining activity at 1 µM [12]
COc1cc(-c2cncc(-c3ccc(N4CCN(C)CC4)cc3)c2C)cc(F)c1C(N)=O [Compound 26a, 2-Fluoro-6-methoxy-4-(4-methyl-5-(4-(4-methylpiperazin-1-yl)phenyl)pyridin-3-yl)benzamide]	86.29%	98.7%	93.32%	99.8%	103%	68.8%	98.66%	87.20%	91.84%	95.06%	98.85%	99.2%
COc1cc(-c2cncc(-c3ccc(N4C[C@@H](C)N(C)[C@@H](C)C4)cc3)c2C)cc(F)c1C(N)=O [Compound 26c, 2-Fluoro-6-methoxy-4-(4-methyl-5-(4-((3R,5S)-3,4,5-trimethylpiperazin-1-yl)phenyl)pyridin-3-yl)benzamide]	96.07%	105%	98.79%	103%	98.9%	82.4% and 81.7%	93.94%	94.20%	93.55%	98.44%	98.36%	99.7%

Source: PMC8213057, “Targeting ALK2: An Open Science Approach to Developing Therapeutics for the Treatment of Diffuse Intrinsic Pontine Glioma” (Journal of Medicinal Chemistry, 2020)
